Reference: US9260425B2 (Genetech, Inc., priority 2011, dated 2016)
pKi: −log10 of the molar value.

Target: Pim-1 (Homo sapiens (Human), UniProt P11309)
Experiment: Pim kinase binding activity assay (Example 901), PIM-1 enzyme, Caliper microfluidic peptide phosphorylation
Format: biochemical
Conditions: 20 pM PIM-1, 10 μM ATP, 1 μM FAM-peptide, 90 minutes at room temperature
Method in brief: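 The readout was microfluidic mobility-shift separation of a FAM-tagged Pim-specific peptide, excited at 488 nm and read at 530 nm, with Ki calculated from percent conversion. Reactions held 20 pM PIM-1, 1 μM peptide and 10 μM ATP in pH 7.2 HEPES/MgCl2/DTT buffer, ran 90 min at room temperature and were stopped with EDTA.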

Pim-1, sequence (P11309 whole entry): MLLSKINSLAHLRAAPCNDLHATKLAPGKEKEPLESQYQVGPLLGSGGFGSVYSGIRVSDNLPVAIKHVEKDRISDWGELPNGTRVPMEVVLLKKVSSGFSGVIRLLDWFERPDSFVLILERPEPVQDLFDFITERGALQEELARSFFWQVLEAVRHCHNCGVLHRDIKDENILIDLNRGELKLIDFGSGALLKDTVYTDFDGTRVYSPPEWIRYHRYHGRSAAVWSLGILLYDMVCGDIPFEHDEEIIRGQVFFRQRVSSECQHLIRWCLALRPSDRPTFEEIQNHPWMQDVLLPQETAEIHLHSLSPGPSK

Structure (SMILES) | pKi
Cc1ccc(-c2n[nH]c3cnc(-c4cnn(C)c4)cc23)nc1N1CCC[C@@H](O)C1 [Example 418, (R)-1-(3-methyl-6-(5-(1-methyl-1H-pyrazol-4-yl)-1H-pyrazolo[3,4-c]pyridin-3-yl)pyridin-2-yl)piperidin-3-ol] | 9.96
CCn1cc(-c2cc3c(-c4cc(C5CC5)ccn4)n[nH]c3cn2)cn1 [Example 484, 3-(4-cyclopropylpyridin-2-yl)-5-(1-ethyl-1H-pyrazol-4-yl)-1H-pyrazolo[3,4-c]pyridine] | 7.94
OC1CCN(c2cccc(-c3n[nH]c4cnc(-c5cccnc5)cc34)n2)CC1 [Example 272, 1-(6-(5-(pyridin-3-yl)-1H-pyrazolo[3,4-c]pyridin-3-yl)pyridin-2-yl)piperidin-4-ol] | 9.83
NCC[C@@H]1CCCN(c2cccc(-c3n[nH]c4cnc(-c5cccnc5)cc34)n2)C1 [Example 242, (S)-2-(1-(6-(5-(pyridin-3-yl)-1H-pyrazolo[3,4-c]pyridin-3-yl)pyridin-2-yl)piperidin-3-yl)ethanamine] | 10.52
O=C1OCCN1c1cc2c(-c3cccc(N4CCNCC4)n3)n[nH]c2cn1 [Example 415, 3-(3-(6-(piperazin-1-yl)pyridin-2-yl)-1H-pyrazolo[3,4-c]pyridin-5-yl)oxazolidin-2-one] | 6.98
CCn1cc(-c2cc3c(-c4cccc(N5CCN(C(C)=O)CC5)n4)n[nH]c3cn2)cn1 [Example 472, 1-(4-(6-(5-(1-ethyl-1H-pyrazol-4-yl)-1H-pyrazolo[3,4-c]pyridin-3-yl)pyridin-2-yl)piperazin-1-yl)ethanone] | 9.97
N[C@H]1CCCN(c2nc(-c3n[nH]c4cnc(-c5cccnc5)cc34)ccc2C2CC2)C1 [Example 485, (S)-1-(3-cyclopropyl-6-(5-(pyridin-3-yl)-1H-pyrazolo[3,4-c]pyridin-3-yl)pyridin-2-yl)piperidin-3-amine] | 10.66
NC1CCN(Cc2n[nH]c3cnc(-c4cccnc4)cc23)CC1 [Example 106, 1-((5-(pyridin-3-yl)-1H-pyrazolo[3,4-c]pyridin-3-yl)methyl)piperidin-4-amine] | 5.85
Cc1n[nH]c2cnc(-c3cncc(N4CCC[C@@H](N)C4)n3)cc12 [Example 121, (R)-1-(6-(3-methyl-1H-pyrazolo[3,4-c]pyridin-5-yl)pyrazin-2-yl)piperidin-3-amine] | 8.16
NC[C@@H]1CCCN(c2ccncc2-c2cc3c(-c4ccccc4F)n[nH]c3cn2)C1 [Example 140, (S)-(1-(3-(3-(2-fluorophenyl)-1H-pyrazolo[3,4-c]pyridin-5-yl)pyridin-4-yl)piperidin-3-yl)methanamine] | 6.39
c1cncc(-c2cc3c(-c4cccc(N5CCNCC5)n4)n[nH]c3cn2)c1 [Example 162, 3-(6-(piperazin-1-yl)pyridin-2-yl)-5-(pyridin-3-yl)-1H-pyrazolo[3,4-c]pyridine] | 10.43
C#Cc1ccc(-c2n[nH]c3cnc(-c4cccnc4)cc23)nc1N1CCC[C@H](N)C1 [Example 342, (S)-1-(3-ethynyl-6-(5-(pyridin-3-yl)-1H-pyrazolo[3,4-c]pyridin-3-yl)pyridin-2-yl)piperidin-3-amine] | 11.00
Cc1cncc(-c2cc3c(-c4cccc(N5CCNCC5)n4)n[nH]c3cn2)c1 [Example 384, 5-(5-methylpyridin-3-yl)-3-(6-(piperazin-1-yl)pyridin-2-yl)-1H-pyrazolo[3,4-c]pyridine] | 10.39
Cc1ccc(-c2n[nH]c3cnc(-c4cccnc4)cc23)nc1N1CCC(O)CC1 [Example 288, 1-(3-methyl-6-(5-(pyridin-3-yl)-1H-pyrazolo[3,4-c]pyridin-3-yl)pyridin-2-yl)piperidin-4-ol] | 10.07
Cn1ccc(-c2n[nH]c3cnc(-c4cccnc4)cc23)n1 [Example 232, 3-(1-methyl-1H-pyrazol-3-yl)-5-(pyridin-3-yl)-1H-pyrazolo[3,4-c]pyridine] | 8.15
N#Cc1cc2c(-c3cccc(N4CCC[C@@H](N)C4)n3)n[nH]c2cn1 [Example 398, (R)-3-(6-(3-aminopiperidin-1-yl)pyridin-2-yl)-1H-pyrazolo[3,4-c]pyridine-5-carbonitrile] | 7.41
CCn1cc(-c2cc3c(-c4ccc(Br)c(N5C[C@@H](N)C[C@@H](F)C5)n4)n[nH]c3cn2)cn1 [Example 454, (3S,5R)-1-(3-bromo-6-(5-(1-ethyl-1H-pyrazol-4-yl)-1H-pyrazolo[3,4-c]pyridin-3-yl)pyridin-2-yl)-5-fluoropiperidin-3-amine] | 10.59
Cc1ccc(-c2n[nH]c3cnc(-c4cccnc4)cc23)nc1N1CCC[C@H](N)C1 [Example 315, (S)-1-(3-methyl-6-(5-(pyridin-3-yl)-1H-pyrazolo[3,4-c]pyridin-3-yl)pyridin-2-yl)piperidin-3-amine] | 11.09
NC(=O)Nc1cc2c(-c3cccc(N4CCC[C@H](N)C4)n3)n[nH]c2cn1 [Example 298, (S)-1-(3-(6-(3-aminopiperidin-1-yl)pyridin-2-yl)-1H-pyrazolo[3,4-c]pyridin-5-yl)urea] | 7.85

Structure (SMILES) | pKi
CCn1cc(-c2cc3c(-c4ccc(Br)c(N5CCC[C@H](N)C5)n4)n[nH]c3cn2)cn1 [Example 403, (S)-1-(3-bromo-6-(5-(1-ethyl-1H-pyrazol-4-yl)-1H-pyrazolo[3,4-c]pyridin-3-yl)pyridin-2-yl)piperidin-3-amine] | 10.40
N[C@H]1CCC[C@@H](Oc2cccc(-c3n[nH]c4cnc(-c5cccnc5)cc34)n2)C1 [Example 299, (1S,3R)-3-(6-(5-(pyridin-3-yl)-1H-pyrazolo[3,4-c]pyridin-3-yl)pyridin-2-yloxy)cyclohexanamine] | 9.18
CCn1cc(-c2cc3c(-c4cncc(N5CCNCC5)n4)n[nH]c3cn2)cn1 [Example 479, 5-(1-ethyl-1H-pyrazol-4-yl)-3-(6-(piperazin-1-yl)pyrazin-2-yl)-1H-pyrazolo[3,4-c]pyridine] | 10.19
CCn1cc(-c2cc3c(-c4ccc(C5CC5)c(N5CCC[C@H](N)C5)n4)n[nH]c3cn2)cn1 [Example 506, (S)-1-(3-cyclopropyl-6-(5-(1-ethyl-1H-pyrazol-4-yl)-1H-pyrazolo[3,4-c]pyridin-3-yl)pyridin-2-yl)piperidin-3-amine] | 10.68
Fc1ccc(-c2cc3c(-c4cccc(N5CCNCC5)n4)n[nH]c3cn2)cn1 [Example 378, 5-(6-fluoropyridin-3-yl)-3-(6-(piperazin-1-yl)pyridin-2-yl)-1H-pyrazolo[3,4-c]pyridine] | 9.10
N[C@@H]1CCCN(Cc2n[nH]c3cnc(-c4cccnc4)cc23)C1 [Example 105, (R)-1-((5-(pyridin-3-yl)-1H-pyrazolo[3,4-c]pyridin-3-yl)methyl)piperidin-3-amine] | 5.47
c1ccc(-c2n[nH]c3cnc(-c4cn[nH]c4)cc23)cc1 [Example 137, 3-phenyl-5-(1H-pyrazol-4-yl)-1H-pyrazolo[3,4-c]pyridine] | 8.34
c1cc(-c2n[nH]c3cnc(-c4cnn(CC5COC5)c4)cc23)nc(N2CCNCC2)c1 [Example 416, 5-(1-(oxetan-3-ylmethyl)-1H-pyrazol-4-yl)-3-(6-(piperazin-l-yl)pyridin-2-yl)-1H-pyrazolo[3,4-c]pyridine] | 7.95
CCn1cc(-c2cc3c(-c4ccc(C(C)C)c(N5CCC[C@H](N)C5)n4)n[nH]c3cn2)cn1 [Example 478, (S)-1-(6-(5-(1-ethyl-1H-pyrazol-4-yl)-1H-pyrazolo[3,4-c]pyridin-3-yl)-3-isopropylpyridin-2-yl)piperidin-3-amine] | 10.70
NC1CCN(C(=O)C2CCN(c3n[nH]c4cnc(-c5cccnc5)cc34)C2=O)CC1 (stereo not shown) [Example 325, 3-(4-aminopiperidine-1-carbonyl)-1-(5-(pyridin-3-yl)-1H-pyrazolo[3,4-c]pyridin-3-yl)pyrrolidin-2-one] | 6.97
CCn1cc(-c2cc3c(-c4ccc(C)c(N5CCC[C@H](N)C5)n4)n[nH]c3cn2)cn1 [Example 430, (S)-1-(6-(5-(1-ethyl-1H-pyrazol-4-yl)-1H-pyrazolo[3,4-c]pyridin-3-yl)-3-methylpyridin-2-yl)piperidin-3-amine] | 10.57
Cn1cc(-c2cc3c(-c4cccc(N5C[C@@H](N)C[C@@H](F)C5)n4)n[nH]c3cn2)cn1 [Example 495, (3S,5R)-5-fluoro-1-(6-(5-(1-methyl-1H-pyrazol-4-yl)-1H-pyrazolo[3,4-c]pyridin-3-yl)pyridin-2-yl)piperidin-3-amine] | 9.91
C[C@@H]1CN(c2cccc(-c3n[nH]c4cnc(-c5cnn(CCF)c5)cc34)n2)CCN1 [Example 521, (R)-5-(1-(2-fluoroethyl)-1H-pyrazol-4-yl)-3-(6-(3-methylpiperazin-1-yl)pyridin-2-yl)-1H-pyrazolo[3,4-c]pyridine] | 10.59
c1cc(-c2n[nH]c3cnc(-n4ccnc4)cc23)nc(N2CCNCC2)c1 [Example 368, 5-(1H-imidazol-1-yl)-3-(6-(piperazin-1-yl)pyridin-2-yl)-1H-pyrazolo[3,4-c]pyridine] | 8.74
Fc1ccccc1-c1n[nH]c2cnc(-c3cnccc3OC[C@@H]3CCNC3)cc12 [Example 209, (R)-3-(2-fluorophenyl)-5-(4-(pyrrolidin-3-ylmethoxy)pyridin-3-yl)-1H-pyrazolo[3,4-c]pyridine] | 9.72
CCn1cc(-c2cc3c(-c4cccc(N5CCCNCC5)n4)n[nH]c3cn2)cn1 [Example 409, 3-(6-(1,4-diazepan-1-yl)pyridin-2-yl)-5-(1-ethyl-1H-pyrazol-4-yl)-1H-pyrazolo[3,4-c]pyridine] | 10.70
CN1C(=O)CN(c2cc3c(-c4cccc(N5CCNCC5)n4)n[nH]c3cn2)C1=O [Example 371, 3-methyl-1-(3-(6-(piperazin-1-yl)pyridin-2-yl)-1H-pyrazolo[3,4-c]pyridin-5-yl)imidazolidine-2,4-dione] | 7.51
OC1CN(c2cccc(-c3n[nH]c4cnc(-c5cccnc5)cc34)n2)CCC1F (stereo not shown) [Example 435, 4-fluoro-1-(6-(5-(pyridin-3-yl)-1H-pyrazolo[3,4-c]pyridin-3-yl)pyridin-2-yl)piperidin-3-ol] | 10.05
